Source: paper PMC4674085, “Towards Prebiotic Catalytic Amyloids Using High Throughput Screening” (PLoS ONE, 2015)

Experiment: NMR-based 4NPA hydrolysis assay at pH 4.3
Assay type: biochemical
Conditions: 4NPA hydrolysis by 1D-1H NMR, 50 mM d3-NaOAc pH 4.3, 2% d6-DMSO, 40 μM total purified peptide (mixture 20 μM each), 0.9 mM 4NPA, 25°C, over 15 days, first order fit, no zinc(II)
Procedure: Purified peptides were solubilized in deuterated DMSO with 1% TFA at a concentration of 4 mM and subsequently diluted to 160 μM in 50 mM deuterated NaOAc buffer at pH 4.3. In the case of the peptide mixture fibrillization (12/21), each peptide was 80 μM. Fibrillization occurred over 5 days after which the sample was diluted to 40 μM total peptide in 50 mM buffer with 0.9 mM 4NPA (from a 90 mM stock solution in d6-DMSO) and a final concentration of d6-DMSO of 2%. From this reaction mixture 500 μl was transferred to a 5 mm NMR tube and measurements were performed in a 600 MHz Bruker NMR spectrometer equipped with a cryo-probe.
The hydrolysis kinetics were monitored in a continuous series of 1D-^1H experiments each consisting of 32 scans at 25°C and each requiring 17 min. In this manner, several time segments lasting between 8 and 17 hours were collected over a period of 15 days. Between measurements, the samples were kept at 25°C.
Data processing and peak integration was performed with Topspin3.2 (Bruker). Relevant peaks used for the analysis were the 4 aromatic protons of both 4NPA and of its product (p-nitrophenol) as well as the methyl groups of 4NPA and acetic acid. The ratio of the sum of integrals for the product protons to the sum of integrals for all protons was used to calculate the substrate concentration. […]

Substance: Ac-YVHVHVDV-NH2 [Peptide 21, Ac-YVHVHVDV-CONH2]
- k cat/K M: 1598±20 10^-6M^-1s^-1
